Columns and labels:
melanin cell = assay: B-2 Inhibition test of cell melanin synthesis (chromogenic method); assay type: cell-based; conditions: for inhibitory effect on cellular melanin synthesis (in words): at a lower concentration (no more than 0.10% g/m L); for inhibitory effect on cellular melanin synthesis compared with kojic acid: comparison with kojic acid
Method: According to cytotoxicity test data, an inhibition test of cell melanin synthesis was performed within the range allowed by cytotoxicity. The range allowed by cytotoxicity is a range of sample concentration corresponding to a relative cell viability more than 60% in the cytotoxicity test. The samples were grouped according to different concentrations, and a test index was melanin content, a test model was melanin cell, and a detection method is a chromogenic method. Cells at logarithmic growth phase were collected, and the cells were inoculated into 24-well plates at a cell density of 2×10^5 cells/well. After 24 h of incubation in the incubator (37° C., 5% CO2), according to the results of cytotoxicity, the drug was added according to the concentration requirements. The untreated cells were used as a blank control, and three parallel controls were set up in each group. After the drug added, the incubation was continued in the incubator (37° C., 5% CO2) for 48 h. The supernatant was discarded, 1 mL of 1 M NaOH containing 10% DMSO was added, and the plate was placed in a thermostatic oven for incubation at 60° C. for 1 h. After restoring to a room temperature, 200 μL mixed solution of each well was transferred to a 96-well plate, and 1 M NaOH containing 10% DMSO was used as a blank control. The absorbance value was read at 405 nm, and the inhibition rate of cellular melanin synthesis was calculated according to the following equation (5): […]

[1] = tested on: human melanoma cells (G361); assay: B-1 Cytotoxicity test (MTT, relative cell viability); assay type: cell-based; conditions: 24 h
Method: • a) Cell inoculation: human melanoma cells (G361) were inoculated into 96-well plates at a density of 1×10^4 cells/well, and the 96-well plates were placed in an incubator (37° C., 5% CO2) overnight for incubation. • b) Experimental grouping: the experiments were set up with a zeroing group, a control group, a positive control group, and a sample group. In the sample group, each sample was set up with different concentration gradients, and 3 replicate wells were set up under each concentration gradient. • c) Solution preparation: different concentrations of sample working solution were prepared according to the concentrations in Table 4. • d) Drug administration: a drug administration was performed until the cell plating rate in the 96-well plate reaches 40%-60%. In the control group, 200 μL of culture medium containing 10% PBS (Gibco) […] was added to each well; in the positive control group, 200 μL of culture medium containing 10% DMSO was added to each well; in the sample group, 200 μL of culture medium containing the corresponding concentration of sample was added to each well; in the zeroing group, no cell was inoculated and only 200 μL of cell culture medium was added. After the drug administration completed, the 96-well plates were placed in an incubator (37° C., 5% CO2) for incubation. • e) Detection: after incubation for 24 h, the supernatant was discarded, and MTT working solution (0.5 mg/mL) was added and incubated at 37° C. in the dark for 4 h. After incubation, the supernatant was discarded, and 100 μL DMSO was added into each well and the OD value was obtained at 490 nm. • f) Relative cell viability was calculated by the following equation (4): […]

SMILES: CCCC(c1ccc(O)cc1O)N1CCCCC1=O (centres unmarked) [I-e]
- inhibitory effect on cellular melanin synthesis (in words) (melanin cell): have an inhibitory effect on cellular melanin synthesis

SMILES: CC(c1ccc(O)cc1O)N1CCCCCC1=O (centres unmarked) [I-g]
- Relative cell viability ([1]; human, 0.007813 % (g/mL)): 117.8165%
- Relative cell viability ([1]; human, 0.015625 % (g/mL)): 120.6987%
- Relative cell viability ([1]; human, 0.03125 % (g/mL)): 107.8966%
- Relative cell viability ([1]; human, 0.125 % (g/mL)): 113.8122%
- Relative cell viability ([1]; human, 0.25 % (g/mL)): 120.9409%
- Relative cell viability ([1]; human, 0.5 % (g/mL)): 107.9874%
- inhibitory effect on cellular melanin synthesis (in words) (melanin cell): have an inhibitory effect on cellular melanin synthesis

SMILES: CC(c1ccc(O)cc1O)N1CCCCC1=O (centres unmarked) [I-a]
- inhibitory effect on cellular melanin synthesis (in words) (melanin cell): have an inhibitory effect on cellular melanin synthesis
- inhibitory effect on cellular melanin synthesis compared with kojic acid (melanin cell): superior to that of kojic acid

SMILES: CC(c1ccc(O)cc1O)N1CCCC1=O (centres unmarked) [I-h]
- inhibitory effect on cellular melanin synthesis (in words) (melanin cell): have an inhibitory effect on cellular melanin synthesis

SMILES: CC(c1cc(C(C)N2CCCC2=O)c(O)cc1O)N1CCCC1=O (centres unmarked) [V-c]
- inhibitory effect on cellular melanin synthesis (in words) (melanin cell): have an inhibitory effect on cellular melanin synthesis

SMILES: CCC(c1ccc(O)cc1O)N1CCCC1=O (centres unmarked) [I-d]
- inhibitory effect on cellular melanin synthesis (in words) (melanin cell): have an inhibitory effect on cellular melanin synthesis
- inhibitory effect on cellular melanin synthesis compared with kojic acid (melanin cell): superior to that of kojic acid

SMILES: CC(c1ccccc1)c1ccc(O)cc1O (centres unmarked) [control group, phenylethyl resorcinol, reference compound]
- Relative cell viability ([1]; G361 cells, MTT, sample concentration 0.007813 % (g/mL)): 106.32%
- Relative cell viability ([1]; G361 cells, MTT, sample concentration 0.015625 % (g/mL)): 114.68%
- Relative cell viability ([1]; G361 cells, MTT, sample concentration 0.03125 % (g/mL)): 101.15%
- Relative cell viability ([1]; G361 cells, MTT, sample concentration 0.125 % (g/mL)): 100.10%
- Relative cell viability ([1]; G361 cells, MTT, sample concentration 0.25 % (g/mL)): 106.07%
- Relative cell viability ([1]; G361 cells, MTT, sample concentration 0.5 % (g/mL)): 96.77%

SMILES: CCCC(c1ccc(O)cc1O)N1CCCC1=O (centres unmarked) [I-f]
- inhibitory effect on cellular melanin synthesis (in words) (melanin cell): have an inhibitory effect on cellular melanin synthesis

SMILES: CC(c1ccccc1)c1cc(C(C)c2ccccc2)c(O)cc1O (centres unmarked) [V-a]
- inhibitory effect on cellular melanin synthesis (in words) (melanin cell): have an inhibitory effect on cellular melanin synthesis
- inhibitory effect on cellular melanin synthesis compared with kojic acid (melanin cell): superior to that of kojic acid

Source: patent publication US20250074876A1, “DIPHENOLIC COMPOUNDS AND PREPARATION METHODS THEREOF” (PURPANA (BEIJING) TECHNOLOGIES CO., LTD., priority 2022, published 2025)
